# Assay results as given in PMC3914206.
# Columns and labels:
# Assay type in all cases: binding
# panel of 442 kinases [1] = biological target: T1, panel of 442 kinases (Homo sapiens, UniProt P45983); details: Compound Concentration 10 µM
# T1 construct: purchased KINOMEscan
# From the text: (§1) We assessed the selectivity of members of this scaffold using the KINOMEscan methodology across a near comprehensive panel of 442 kinases [[18,27]].
# panel of 442 kinases [2] = biological target: T2, panel of 442 kinases (Homo sapiens, UniProt Q99755); details: Compound Concentration 10 µM
# T2 construct: purchased KINOMEscan
# T2 sequence (Q99755 whole entry): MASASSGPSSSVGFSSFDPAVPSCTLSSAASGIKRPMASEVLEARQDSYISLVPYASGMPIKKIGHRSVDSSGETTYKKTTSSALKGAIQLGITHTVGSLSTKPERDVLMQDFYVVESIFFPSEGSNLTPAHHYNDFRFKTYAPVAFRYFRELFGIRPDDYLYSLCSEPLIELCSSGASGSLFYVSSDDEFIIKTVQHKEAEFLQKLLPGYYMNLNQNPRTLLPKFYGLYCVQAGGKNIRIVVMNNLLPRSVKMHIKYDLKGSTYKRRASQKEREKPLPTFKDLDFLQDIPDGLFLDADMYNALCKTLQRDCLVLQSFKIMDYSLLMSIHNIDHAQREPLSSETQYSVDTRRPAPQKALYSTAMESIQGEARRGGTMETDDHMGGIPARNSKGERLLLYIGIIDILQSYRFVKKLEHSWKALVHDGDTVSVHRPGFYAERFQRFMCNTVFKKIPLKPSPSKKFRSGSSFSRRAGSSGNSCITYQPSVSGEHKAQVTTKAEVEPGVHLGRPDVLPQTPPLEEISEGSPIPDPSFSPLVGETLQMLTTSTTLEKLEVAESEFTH
# From the text: as §1
# panel of 442 kinases [3] = biological target: T3, panel of 442 kinases (Homo sapiens, UniProt P07947); details: kinase YES; compound concentration 10 µM
# T3 construct: purchased KINOMEscan
# T3 sequence (P07947 whole entry): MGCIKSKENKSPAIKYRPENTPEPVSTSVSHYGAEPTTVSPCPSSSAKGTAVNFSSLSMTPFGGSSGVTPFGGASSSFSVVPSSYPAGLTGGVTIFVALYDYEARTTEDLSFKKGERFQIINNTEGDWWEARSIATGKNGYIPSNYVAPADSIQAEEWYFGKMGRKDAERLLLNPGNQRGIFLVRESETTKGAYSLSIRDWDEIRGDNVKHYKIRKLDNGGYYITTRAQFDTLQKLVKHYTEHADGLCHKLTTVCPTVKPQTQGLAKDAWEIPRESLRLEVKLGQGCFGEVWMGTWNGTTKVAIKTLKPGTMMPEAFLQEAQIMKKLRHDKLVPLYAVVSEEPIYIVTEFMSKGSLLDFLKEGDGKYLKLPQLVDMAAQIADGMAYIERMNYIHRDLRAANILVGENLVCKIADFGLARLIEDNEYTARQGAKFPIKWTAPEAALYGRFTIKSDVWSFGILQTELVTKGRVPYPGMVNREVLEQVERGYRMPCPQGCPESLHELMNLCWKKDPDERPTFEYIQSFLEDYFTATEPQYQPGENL
# From the text: as §1
# panel of 442 kinases [4] = biological target: T4, panel of 442 kinases (Homo sapiens, UniProt P51617); details: Compound Concentration 10 µM
# T4 construct: purchased KINOMEscan
# T4 sequence (P51617 whole entry): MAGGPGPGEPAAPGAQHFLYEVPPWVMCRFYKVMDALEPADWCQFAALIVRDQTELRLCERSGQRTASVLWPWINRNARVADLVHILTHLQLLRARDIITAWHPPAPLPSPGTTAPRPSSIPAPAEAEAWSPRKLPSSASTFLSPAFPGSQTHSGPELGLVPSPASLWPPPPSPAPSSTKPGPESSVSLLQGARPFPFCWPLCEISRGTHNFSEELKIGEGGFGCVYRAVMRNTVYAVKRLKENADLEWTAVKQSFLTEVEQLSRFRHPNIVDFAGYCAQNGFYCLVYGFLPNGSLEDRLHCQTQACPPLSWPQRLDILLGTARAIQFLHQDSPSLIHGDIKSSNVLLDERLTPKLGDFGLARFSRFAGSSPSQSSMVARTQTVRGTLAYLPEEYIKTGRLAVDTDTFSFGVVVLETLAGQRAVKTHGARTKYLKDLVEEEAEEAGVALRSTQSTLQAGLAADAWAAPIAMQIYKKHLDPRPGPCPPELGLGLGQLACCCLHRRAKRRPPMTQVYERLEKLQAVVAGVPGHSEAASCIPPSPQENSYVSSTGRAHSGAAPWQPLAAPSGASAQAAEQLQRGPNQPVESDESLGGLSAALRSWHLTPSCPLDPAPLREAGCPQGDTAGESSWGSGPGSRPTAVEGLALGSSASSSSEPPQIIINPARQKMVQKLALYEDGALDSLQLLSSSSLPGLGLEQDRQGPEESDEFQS
# From the text: as §1
# T1 sequence (P45983 whole entry): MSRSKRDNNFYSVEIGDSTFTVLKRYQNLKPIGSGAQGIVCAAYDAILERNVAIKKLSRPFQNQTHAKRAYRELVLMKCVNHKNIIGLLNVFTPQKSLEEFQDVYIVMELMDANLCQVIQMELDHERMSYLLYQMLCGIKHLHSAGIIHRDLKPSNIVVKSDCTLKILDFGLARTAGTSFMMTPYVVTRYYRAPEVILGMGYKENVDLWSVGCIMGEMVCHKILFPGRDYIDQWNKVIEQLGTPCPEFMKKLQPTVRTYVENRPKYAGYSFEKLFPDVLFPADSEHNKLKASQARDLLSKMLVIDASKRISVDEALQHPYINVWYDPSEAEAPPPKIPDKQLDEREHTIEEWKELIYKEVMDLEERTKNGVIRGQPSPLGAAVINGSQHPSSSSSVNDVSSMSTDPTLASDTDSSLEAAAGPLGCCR
Compound,KINOMEscan: JNK1 (panel of 442 kinases [1]),KINOMEscan: PIP5K1A (panel of 442 kinases [2]),"% Ctrl, YES (panel of 442 kinases [3]) [% Ctrl]",KINOMEscan: IRAK1 (panel of 442 kinases [4])
"COc1cc(C(=O)N2CCC(N3CCN(C)CC3)CC2)ccc1Nc1ncc2c(n1)N(C1CCCC1)c1ccccc1C(=O)N2C [Compound 25, 11-cyclopentyl-2-((2-methoxy-4-(4-(4-methylpiperazin-1-yl)piperidine-1-carbonyl)phenyl)amino)-5-methyl-5H-benzo[e]pyrimido[5,4-b][1,4]diazepin-6(11H)-one]",38,100,89,89
CCOc1cc(C(=O)N2CCC(N3CCN(C)CC3)CC2)ccc1Nc1ncc2c(n1)N(C1CCCC1)c1ccccc1C(=O)N2C [Compound 26],76,78,100,100
COc1cc(C(=O)N2CCC(N3CCN(C)CC3)CC2)ccc1Nc1ncc2c(n1)N1CCc3cccc(c31)C(=O)N2C [Compound 24],63,,100,95
COc1cc(C(=O)N2CCC(N3CCN(C)CC3)CC2)ccc1Nc1ncc2c(n1)N(C)c1ccccc1C(=O)N2C [15 (LRRK2-IN-1)],95,90,100,100
